{"source": "patent US20080125480A1", "about": "“Oil-In-Water Formulation Of Avermectins” (priority 2004, published 2008)", "key": {"[1]": {"assay": "Stability of Abamectin in water at various pH-values and temperatures (dark, HPLC)", "assay_type": "physicochemical", "procedure": "The stability of Abamectin in water at various pH-values and temperatures was determined. 194.4 mg of abamectin was dissolved in 10 ml methanol and 1 ml of the solution transferred to 100 ml of de-mineralised water and a part of this was transferred to a buffer solution. The sample was kept in the dark and the solution analysed using a HPLC."}, "[2]": {"assay": "Stability of Abamectin in water exposed to light at various pH-values (HPLC)", "assay_type": "physicochemical", "procedure": "The stability of Abamectin in water exposed to light at various pH-values was determined. 194.4 mg of abamectin was dissolved in 10 ml methanol and 1 ml of the solution transferred to 100 ml of demineralised water and a part of this transferred to a buffer solution. […]"}}}
{"substance": "Abamectin", "values": [{"measurement": "Abamectin concentration", "setting": "[1]; pH 4.0, 25 °C, 7 days", "value": 3.130, "unit": "ppm"}, {"measurement": "Abamectin concentration", "setting": "[1]; pH 4.0, 25 °C, 14 days", "value": 2.782, "unit": "ppm"}, {"measurement": "Abamectin concentration", "setting": "[1]; pH 4.0, 25 °C, 21 days", "value": 2.566, "unit": "ppm"}, {"measurement": "Abamectin concentration", "setting": "[1]; pH 4.0, 25 °C, 28 days", "value": 2.524, "unit": "ppm"}, {"measurement": "Abamectin concentration", "setting": "[1]; pH 4.0, 25 °C, Initial", "value": 3.495, "unit": "ppm"}, {"measurement": "Abamectin concentration", "setting": "[1]; pH 4.0, 50 °C, 7 days", "value": 1.054, "unit": "ppm"}, {"measurement": "Abamectin concentration", "setting": "[1]; pH 4.0, 50 °C, 14 days", "value": 0.383, "unit": "ppm"}, {"measurement": "Abamectin concentration", "setting": "[1]; pH 4.0, 50 °C, 21 days", "value": 0.123, "unit": "ppm"}, {"measurement": "Abamectin concentration", "setting": "[1]; pH 4.0, 50 °C, 28 days", "value": 0.0609, "unit": "ppm"}, {"measurement": "Abamectin concentration", "setting": "[1]; pH 4.0, 50 °C, Initial", "value": 3.495, "unit": "ppm"}, {"measurement": "Abamectin concentration", "setting": "[1]; pH 7.0, 25 °C, 7 days", "value": 3.188, "unit": "ppm"}, {"measurement": "Abamectin concentration", "setting": "[1]; pH 7.0, 25 °C, 14 days", "value": 3.040, "unit": "ppm"}, {"measurement": "Abamectin concentration", "setting": "[1]; pH 7.0, 25 °C, 21 days", "value": 2.829, "unit": "ppm"}, {"measurement": "Abamectin concentration", "setting": "[1]; pH 7.0, 25 °C, 28 days", "value": 2.676, "unit": "ppm"}, {"measurement": "Abamectin concentration", "setting": "[1]; pH 7.0, 25 °C, Initial", "value": 3.327, "unit": "ppm"}, {"measurement": "Abamectin concentration", "setting": "[1]; pH 7.0, 50 °C, 7 days", "value": 2.952, "unit": "ppm"}, {"measurement": "Abamectin concentration", "setting": "[1]; pH 7.0, 50 °C, 14 days", "value": 2.780, "unit": "ppm"}, {"measurement": "Abamectin concentration", "setting": "[1]; pH 7.0, 50 °C, 21 days", "value": 2.194, "unit": "ppm"}, {"measurement": "Abamectin concentration", "setting": "[1]; pH 7.0, 50 °C, 28 days", "value": 1.949, "unit": "ppm"}, {"measurement": "Abamectin concentration", "setting": "[1]; pH 7.0, 50 °C, Initial", "value": 3.327, "unit": "ppm"}, {"measurement": "Abamectin concentration", "setting": "[1]; pH 9.0, 25 °C, 7 days", "value": 3.005, "unit": "ppm"}, {"measurement": "Abamectin concentration", "setting": "[1]; pH 9.0, 25 °C, 14 days", "value": 2.596, "unit": "ppm"}, {"measurement": "Abamectin concentration", "setting": "[1]; pH 9.0, 25 °C, 21 days", "value": 2.380, "unit": "ppm"}, {"measurement": "Abamectin concentration", "setting": "[1]; pH 9.0, 25 °C, 28 days", "value": 2.287, "unit": "ppm"}, {"measurement": "Abamectin concentration", "setting": "[1]; pH 9.0, 25 °C, Initial", "value": 3.555, "unit": "ppm"}, {"measurement": "Abamectin concentration", "setting": "[1]; pH 9.0, 50 °C, 7 days", "value": 1.265, "unit": "ppm"}, {"measurement": "Abamectin concentration", "setting": "[1]; pH 9.0, 50 °C, 14 days", "value": 0.519, "unit": "ppm"}, {"measurement": "Abamectin concentration", "setting": "[1]; pH 9.0, 50 °C, 21 days", "value": 0.205, "unit": "ppm"}, {"measurement": "Abamectin concentration", "setting": "[1]; pH 9.0, 50 °C, 28 days", "value": 0.0628, "unit": "ppm"}, {"measurement": "Abamectin concentration", "setting": "[1]; pH 9.0, 50 °C, Initial", "value": 3.555, "unit": "ppm"}, {"measurement": "Abamectin concentration", "setting": "[2]; pH 4.0, 25° C., Dark, 7 days", "value": 3.130, "unit": "ppm"}, {"measurement": "Abamectin concentration", "setting": "[2]; pH 4.0, 25° C., Dark, 14 days", "value": 2.782, "unit": "ppm"}, {"measurement": "Abamectin concentration", "setting": "[2]; pH 4.0, 25° C., Dark, 21 days", "value": 2.566, "unit": "ppm"}, {"measurement": "Abamectin concentration", "setting": "[2]; pH 4.0, 25° C., Dark, 28 days", "value": 2.524, "unit": "ppm"}, {"measurement": "Abamectin concentration", "setting": "[2]; pH 4.0, 25° C., Dark, Initial", "value": 3.495, "unit": "ppm"}, {"measurement": "Abamectin concentration", "setting": "[2]; pH 4.0, 25° C., Light (5000-6000 lux), 7 days", "value": 2.923, "unit": "ppm"}, {"measurement": "Abamectin concentration", "setting": "[2]; pH 4.0, 25° C., Light (5000-6000 lux), 14 days", "value": 2.332, "unit": "ppm"}, {"measurement": "Abamectin concentration", "setting": "[2]; pH 4.0, 25° C., Light (5000-6000 lux), 21 days", "value": 1.961, "unit": "ppm"}, {"measurement": "Abamectin concentration", "setting": "[2]; pH 4.0, 25° C., Light (5000-6000 lux), 28 days", "value": 1.666, "unit": "ppm"}, {"measurement": "Abamectin concentration", "setting": "[2]; pH 4.0, 25° C., Light (5000-6000 lux), Initial", "value": 3.495, "unit": "ppm"}, {"measurement": "Abamectin concentration", "setting": "[2]; pH 7.0, 25° C., Dark, 7 days", "value": 3.188, "unit": "ppm"}, {"measurement": "Abamectin concentration", "setting": "[2]; pH 7.0, 25° C., Dark, 14 days", "value": 3.040, "unit": "ppm"}, {"measurement": "Abamectin concentration", "setting": "[2]; pH 7.0, 25° C., Dark, 21 days", "value": 2.829, "unit": "ppm"}, {"measurement": "Abamectin concentration", "setting": "[2]; pH 7.0, 25° C., Dark, 28 days", "value": 2.676, "unit": "ppm"}, {"measurement": "Abamectin concentration", "setting": "[2]; pH 7.0, 25° C., Dark, Initial", "value": 3.327, "unit": "ppm"}, {"measurement": "Abamectin concentration", "setting": "[2]; pH 7.0, 25° C., Light (5000-6000 lux), 7 days", "value": 2.941, "unit": "ppm"}, {"measurement": "Abamectin concentration", "setting": "[2]; pH 7.0, 25° C., Light (5000-6000 lux), 14 days", "value": 2.529, "unit": "ppm"}, {"measurement": "Abamectin concentration", "setting": "[2]; pH 7.0, 25° C., Light (5000-6000 lux), 21 days", "value": 2.223, "unit": "ppm"}, {"measurement": "Abamectin concentration", "setting": "[2]; pH 7.0, 25° C., Light (5000-6000 lux), 28 days", "value": 2.034, "unit": "ppm"}, {"measurement": "Abamectin concentration", "setting": "[2]; pH 7.0, 25° C., Light (5000-6000 lux), Initial", "value": 3.327, "unit": "ppm"}, {"measurement": "Abamectin concentration", "setting": "[2]; pH 9.0, 25° C., Dark, 7 days", "value": 3.005, "unit": "ppm"}, {"measurement": "Abamectin concentration", "setting": "[2]; pH 9.0, 25° C., Dark, 14 days", "value": 2.596, "unit": "ppm"}, {"measurement": "Abamectin concentration", "setting": "[2]; pH 9.0, 25° C., Dark, 21 days", "value": 2.380, "unit": "ppm"}, {"measurement": "Abamectin concentration", "setting": "[2]; pH 9.0, 25° C., Dark, 28 days", "value": 2.287, "unit": "ppm"}, {"measurement": "Abamectin concentration", "setting": "[2]; pH 9.0, 25° C., Dark, Initial", "value": 3.555, "unit": "ppm"}, {"measurement": "Abamectin concentration", "setting": "[2]; pH 9.0, 25° C., Light (5000-6000 lux), 7 days", "value": 3.163, "unit": "ppm"}, {"measurement": "Abamectin concentration", "setting": "[2]; pH 9.0, 25° C., Light (5000-6000 lux), 14 days", "value": 2.810, "unit": "ppm"}, {"measurement": "Abamectin concentration", "setting": "[2]; pH 9.0, 25° C., Light (5000-6000 lux), 21 days", "value": 2.360, "unit": "ppm"}, {"measurement": "Abamectin concentration", "setting": "[2]; pH 9.0, 25° C., Light (5000-6000 lux), 28 days", "value": 2.173, "unit": "ppm"}, {"measurement": "Abamectin concentration", "setting": "[2]; pH 9.0, 25° C., Light (5000-6000 lux), Initial", "value": 3.555, "unit": "ppm"}]}
